# Assays:
# [1] = format: physicochemical
# Description: Metronidazole (Apo-Metronidazole, Apotex Research Inc.) was prepared by grinding tablets into a powder form and water is added to make a paste. The paste was added to a suitable quantity of nystatin, which was obtained as an aqueous solution from Alimed or PMS PharmaScience (Nilstat™). […] The mouth rinse has a slightly sticky consistency that provides effective contact with the tissues.
# [2] = test system: anaerobic gram-negative microorganisms; conditions: short-term systemic use, administered orally in humans; cited from earlier work
structure (smiles),measurement,setting,value
Cc1ncc([N+](=O)[O-])n1CCO [metronidazole],solubility in water,[1],does not dissolve in water
same,effect on anaerobic gram-negative microorganisms and periodontal health,[2],sustained reduction of anaerobic gram-negative microorganisms

# From patent US20040253193A1, “Oral rinse for treatment for prevention of bacterial and fungal infection” (priority 2001, published 2004)
